The source of these data is US8952002B2, “Aminoheteroaryl compounds and preparation method and use thereof” (Shanghai Allist Pharmaceuticals, Inc., priority 2012, dated 2015).

What is called IC50 is the concentration that gives 50% inhibition.

The subject of experiment [1] is human breast cancer cells (MDA-MB-231). Kind of experiment: SRB proliferation assay, human breast cancer cells (MDA-MB-231). The class given is cell-based. The settings on record: MDA-MB-231, 72 hr, read-out: IC50 against MDA-MB-231 cells. From the text:
(§1) The pharmacodynamic action of the compound of the present invention in terms of inhibiting the proliferation of cancer cells may be assayed by conventional methods, one preferable evaluation method of which is Sulforhodamine B (SRB) protein staining method, which calculates the inhibition ratio of a drug against the proliferation of cancer cells through measuring the change in optical absorption value generated after the drug has influenced the cancer cells. Inhibition ratio (%)=(OD control−OD inhibitor−OD blank)/(OD control−OD blank)×100%
OD control: the OD value of the well of normally grown cells without the action of a drug.
OD inhibitor: the OD value of the well of cells with the action of added compounds to be screened.
OD blank: the OD value of the well of parallel control without seeding cells.
(§2) The median inhibitory concentration (IC50) value is obtained by the software GraphPad Prism 5 through calculation.
The human breast cancer cells in the logarithmic phase were inoculated to 96-well culture plates (180 μl/well) at a density of about 5500/well. The well for each concentration was triplicated. Solvent control wells of corresponding concentrations and apoptosis-free wells were also established. […]
(In SRB staining, fixed cells bind dye roughly in proportion to their protein.)

Experiment [2] relates to human colon cancer cells (HT-29). Kind of experiment: SRB proliferation assay, human colon cancer cells (HT-29). The following applies: HT-29, 72 hr, read-out: IC50 against HT-29 cells. The class given is cell-based.
Source text: as §1, §2
(§3) The human breast cancer cells in the logarithmic phase were inoculated to 96-well culture plates (180 μl/well) at a density of about 5500/well. The well for each concentration was triplicated. Solvent control wells of corresponding concentrations and apoptosis-free wells were also established. After adherent growth for 24 hr, the compounds of the present invention were added at 20 μl/well, and the cells were cultured for 72 hr under the conditions of 10% Hyclone fetal calf serum, 37° C., 5% CO2. […]
According to the experimental method of Test Example 1, the IC50 value of the compound of the present invention against HT-29 cells was calculated as: […]

Experiment [3] deals with human lung cancer cells (H1975). Kind of experiment: SRB proliferation assay, human lung cancer cells (H1975). The class given is cell-based. The settings on record: NCI-H1975, H1975, 72 hr, read-out: IC50 against H1975 cells.
Source text: as §1, §2, §3
According to the experimental method of Test Example 1, the IC50 value of the compound of the present invention against H1975 cells was calculated as: […]

The target in a further experiment is c-Met receptor (Homo sapiens (Human), UniProt P08581). Kind of experiment: Western blot test of c-Met phosphorylation in EGF-stimulated H1975 cells. The following applies: EGF induction, 1 μM and 5 μM, 6 hr. It counts as cell-based. As to the method:
The human lung cancer cells (H1975) in the logarithmic phase were inoculated to 6-well culture plates at a density of about 4×10^5/well. The cells were adherently grown for 24 hr. Four wells were selected, wherein two wells were added with the compound of Example 2 respectively (1 μM/well and 5 μM/well). The other two wells were not added with drugs. The cells were cultured for 6 hr under the conditions of 10% Hyclone fetal calf serum, 37° C., 5% CO2. EGF was added to the above two wells and one of the drug-free well to stimulate for 15 min. After the cells were washed with cold PBS, sample loading buffer (2×SDS Lysis Buffer+1M DTT+H2O) was added to lyse the cells. The lysate of the cells was heated for 10 min at 100° C., centrifuged for 5 min at 12000 g, and the supernatant was took out. The supernatant was subjected to SDS-PAGE electrophoretic analysis. At 25 mA constant current, after wetly transferred for 2 h, the proteins were transferred to PVDF (polyvinylidine difluoride) membrance. The PVDF membrance was took out, incubated with the corresponding primary antibody (pMet) at 4° C. overnight. […] After washing with TBST for 3 times, images were developed with ECL luminescence kit, and were mounted. […]
A general note: A western blot detects proteins with antibodies after separation by electrophoresis.

Experiment [4] has as its target receptor tyrosine kinase c-Met (c-Met kinase domain recombination protein) (Homo sapiens (Human), UniProt P08581). Kind of experiment: Enzyme linked immunosorbent assay (ELISA) of c-Met kinase activity. The class given is biochemical. The following applies: for IC50: c-Met enzyme, ELISA, read-out: IC50 (nM) mean ± SD. As to the method:
The evaluation of the inhibition of the compound of the present invention on the activity of c-Met enzyme in molecular level may be assayed by conventional methods, one preferable evaluation method of which is enzyme-linked immunosorbent assay (ELISA). By measuring the inhibition ratio of the compounds against the activity of receptor tyrosine kinase protein c-Met enzyme, the median inhibitory concentration IC50 is calculated based on the inhibition ratios for various concentrations using the four-parameter method. The inhibition ratio for a sample (%)=(1−(OD value of a compound−OD value of the control well without enzyme)/(OD value of the negative control well−OD value of the control well without enzyme))×100%
(1) The enzyme reaction substrate Poly(Glu, Tyr) 4:1 was diluted to 20 μg/mL, 1254/well coated enzyme label plate with potassium ion-free PBS (10 mM sodium phosphate buffer, 150 mM NaCl, pH7.2-7.4), which was placed at 37° C. to allow to react for 12-16 h. The liquid in the wells was discarded. The plate was washed with 200 μL/well of T-PBS (potassium ion-free PBS containing 0.1% Tween-20) for three times (each for 5 min). The enzyme label plate was placed into a drying oven at 37° C. to dry for 1-2 h.
(2) To each well was added 50 µL of ATP solution diluted with reaction buffer (50 mM HEPES pH 7.4, 50 mM MgCl2, 0.5 mM MnCl2, 0.2 mM Na3VO4, 1 mM DTT), and to each well was added 1 μL of the compounds. When adding the test compounds, 6 concentration gradients were set for each compound (the starting concentrations and dilution times were determined according to the results of preliminary screening so as to ensure that the maximum inhibition ratio was about 80% and the minimum inhibition ratio was about 20%, and more than two concentration points were in the vicinity of 50% inhibition ratio), and then 504 of c-Met kinase domain recombination protein diluted with reaction buffer was added to initiate the reaction. Two ATP-free control wells were needed for each of the experiments. The reaction was placed on a shaking table at 37° C. (100 rpm) for 1 h. The liquid in the wells was discarded and the plate was washed with T-PBS for three times.
(3) The antibody PY99 was added at 1004/well (the antibody was diluted with T-PBS containing BSA (5 mg/mL) in 1:500). The reaction was performed on a shaking table at 37° C. for 0.5 h. The liquid in the wells was discarded and the plate was washed with T-PBS for three times.
(4) The horseradish peroxidase-labeled goat anti-mouse secondary antibody was added at 100 μL/well (the antibody was diluted with T-PBS containing BSA (5 mg/mL) in 1:2000), The reaction was performed on a shaking table at 37° C. for 0.5 h. The liquid in the wells was discarded and the plate was washed with T-PBS for three times.
(5) 2 mg/ml of OPD colour developing solution (diluted with 0.1M citric acid-sodium citrate buffer (pH=5.4) containing 0.03% H2O2) was added at 1004/well, and the reaction was performed at 25° C. for 1-10 min under protection from light.
(6) 2M H2SO4 was added at 50 μL/well to terminate the reaction, and the values were read by a microplate reader VERSAmax with adjustable wavelength, wherein the wavelength was 490 nm. Through calculation, the inhibitory IC50 values of the compounds of Example 2, 12 and 13 against the activity of receptor tyrosine kinase c-Met enzyme were obtained as: […]
(ELISA stands for enzyme-linked immunosorbent assay.)

receptor tyrosine kinase c-Met (c-Met kinase domain recombination protein), sequence (P08581 1078-1345): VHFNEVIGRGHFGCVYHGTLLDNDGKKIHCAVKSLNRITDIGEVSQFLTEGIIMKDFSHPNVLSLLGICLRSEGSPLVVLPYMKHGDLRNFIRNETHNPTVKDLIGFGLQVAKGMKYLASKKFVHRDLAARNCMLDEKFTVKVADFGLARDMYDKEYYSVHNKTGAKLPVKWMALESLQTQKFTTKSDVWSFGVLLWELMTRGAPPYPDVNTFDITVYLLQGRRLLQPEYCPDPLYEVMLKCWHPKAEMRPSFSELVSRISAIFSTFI
c-Met receptor, sequence (P08581 25-1390): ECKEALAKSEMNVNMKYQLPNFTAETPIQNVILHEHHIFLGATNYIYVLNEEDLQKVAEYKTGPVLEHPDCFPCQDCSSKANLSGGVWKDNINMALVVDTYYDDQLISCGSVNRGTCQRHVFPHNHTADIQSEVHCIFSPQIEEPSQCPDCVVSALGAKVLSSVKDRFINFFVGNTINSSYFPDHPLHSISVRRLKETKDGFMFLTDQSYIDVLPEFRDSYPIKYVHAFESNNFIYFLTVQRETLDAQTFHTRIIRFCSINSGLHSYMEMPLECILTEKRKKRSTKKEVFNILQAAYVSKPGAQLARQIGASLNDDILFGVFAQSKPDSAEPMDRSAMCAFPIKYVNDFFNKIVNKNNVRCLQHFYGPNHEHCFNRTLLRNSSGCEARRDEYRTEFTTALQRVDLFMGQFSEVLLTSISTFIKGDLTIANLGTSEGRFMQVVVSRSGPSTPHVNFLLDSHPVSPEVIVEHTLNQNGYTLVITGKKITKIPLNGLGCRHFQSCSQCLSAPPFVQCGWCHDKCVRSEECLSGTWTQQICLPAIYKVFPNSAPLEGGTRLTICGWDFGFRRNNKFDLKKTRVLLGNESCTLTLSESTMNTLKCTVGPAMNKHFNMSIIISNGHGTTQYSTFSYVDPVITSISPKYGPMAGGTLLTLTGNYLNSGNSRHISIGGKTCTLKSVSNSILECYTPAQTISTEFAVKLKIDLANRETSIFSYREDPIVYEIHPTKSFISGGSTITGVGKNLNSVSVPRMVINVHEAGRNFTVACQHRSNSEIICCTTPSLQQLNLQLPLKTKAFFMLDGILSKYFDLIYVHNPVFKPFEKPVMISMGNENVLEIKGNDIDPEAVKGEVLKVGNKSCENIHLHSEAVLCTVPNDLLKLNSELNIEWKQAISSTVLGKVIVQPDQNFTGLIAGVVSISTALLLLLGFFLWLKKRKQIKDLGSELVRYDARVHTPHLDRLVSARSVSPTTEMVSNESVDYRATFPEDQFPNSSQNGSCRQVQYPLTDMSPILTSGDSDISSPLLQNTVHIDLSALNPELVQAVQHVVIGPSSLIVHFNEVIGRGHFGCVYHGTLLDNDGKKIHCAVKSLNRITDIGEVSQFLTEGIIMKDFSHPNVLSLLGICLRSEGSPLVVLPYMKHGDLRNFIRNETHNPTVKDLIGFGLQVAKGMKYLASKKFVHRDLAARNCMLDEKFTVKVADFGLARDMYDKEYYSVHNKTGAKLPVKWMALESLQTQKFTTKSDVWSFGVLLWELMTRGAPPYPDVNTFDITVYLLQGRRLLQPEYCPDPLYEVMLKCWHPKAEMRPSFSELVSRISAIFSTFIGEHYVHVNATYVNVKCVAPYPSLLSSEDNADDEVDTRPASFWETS

Regarding `CC(Oc1cc(-c2cn(C3CCNCC3)nn2)cnc1N)c1c(Cl)ccc(F)c1Cl` (stereo not shown) [Example 2, 3-(1-(2,6-dichloro-3-fluorophenyl)ethoxy)-5-(1-(piperidin-4-yl)-1H-1,2,3-triazol-4-yl)-2-aminopyridine], the concentration for half-maximal inhibition (IC50) in experiment [1] turned out to be 9530 nM; in experiment [2] it was 5260 nM; in experiment [3], 11700 nM; in experiment [4], 6.7 ± 2.3 nM. For the same compound, on c-Met receptor, the “inhibition of the phosphorylation of c-Met receptor” value is listed as “effectively inhibit”. The “Average inhibition ratio (%)” value was 8.4% in experiment [4] (0.8 nM); 26.9% in experiment [4] (2 nM); 51.0% in experiment [4] (7 nM); 69.9% in experiment [4] (22 nM); 76.8% in experiment [4] (66 nM); 78.0% in experiment [4] (200 nM).
Regarding `C[C@H](Oc1cc(-c2cn(C3CCNCC3)nn2)cnc1N)c1c(Cl)ccc(F)c1Cl` [Example 12], the “Average inhibition ratio (%)” value in experiment [4] (0.8 nM) is listed as 7.9%; in experiment [4] (2 nM), 18.2%; in experiment [4] (7 nM) it was 39.8%; in experiment [4] (22 nM) it was 61.7%; in experiment [4] (66 nM), 76.3%; in experiment [4] (200 nM), 77.5%. The IC50 in experiment [4] turned out to be 11.7 ± 2.3 nM.
Consider `C[C@@H](Oc1cc(-c2cn(C3CCNCC3)nn2)cnc1N)c1c(Cl)ccc(F)c1Cl` [Example 13, (R)-3-(1-(2,6-dichloro-3-fluorophenyl)ethoxy)-5-(1-(piperidin-4-yl)-1H-1,2,3-triazol-4-yl)-2-aminopyridine], for which the “Average inhibition ratio (%)” value in experiment [4] (0.8 nM) worked out at 31.1%; in experiment [4] (2 nM), 62.2%; in experiment [4] (7 nM), 67.7%; in experiment [4] (22 nM) it was 79.7%; in experiment [4] (66 nM) it was 88.0%; in experiment [4] (200 nM), 88.2%. Further, in experiment [4], the IC50 came out at 1.7 ± 0.4 nM.
